What was measured:
[1] = tested on: P. aeruginosa MB9799 (efflux-, IMP-1 plasmid); assay type: cell-based, Pseudomonas aeruginosa; conditions: efflux − (MB9799) strain; imipenem at 2 μg/mL; in the presence of a class A, C, D serine β-lactamase inhibitor closely related to relebactam
Outline: (§1)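 PAO1-derived isogenic pair (oprD+, inducible AmpC), efflux+ MB5919 or efflux− MB5890 parent, carrying an electroporated IMP-1 plasmid from a clinical isolate. Microbroth MIC with fixed imipenem and/or ceftazidime (usually CLSI breakpoint) plus fixed class A/C inhibitor; MBL inhibitor serially titrated, concentration restoring susceptibility recorded.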

VIM-2 = VIM-2 (Escherichia coli, UniProt Q5U7L7); test: biochemical; conditions: CCF2-FA fluorescence assay; read-out: VIM2 IC50
NDM-1 = NDM-1 (Klebsiella pneumoniae, UniProt C7C422); test: biochemical; assay type: biochemical; conditions: CCF2-FA fluorescence assay, 2 hours at 25° C.
Outline: (§2)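 Buffer 100 mM KH2PO4 pH 7, 0.005% Tween-20, 10 μM ZnSO4. NDM-1 1 pM, IMP-1 2 pM, VIM-1 30 pM final; CCF2-FA 1.25 μM. Cpd 20–0.00063 μM, 2 h, 25° C. Ex 405/Em 460 nm; IC50 via 4-parameter curve.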

[2] = tested on: P. aeruginosa MB9798 (efflux+, IMP-1 plasmid); conditions: for MB9798 MITC95 P. aeruginosa uM Efflux WT: efflux + (MB9798) strain, imipenem at 2 μg/mL, in the presence of a class A, C, D serine β-lactamase inhibitor closely related to relebactam; for Efflux ratio: fold difference between efflux+ (MB9798) and efflux− (MB9799) strains
Outline: as §1

[3] = tested on: Escherichia coli expressing NDM-1 (CLB30016); assay type: cell-based; conditions: with imipenem 1 μg/ml; 95% inhibition of bacterial growth
Outline: (§3)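 Colonies from sheep-blood agar plates are resuspended in saline, then diluted 1:100 in 1.1× CAMHB. Bacteria receive imipenem (1 μg/ml) and test compound, then incubate 22–24 h at 35 °C. Potentiation is reported as MITC95 from absorbance.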

[4] = tested on: Serratia marcescens expressing IMP-1 (CL5741); assay type: cell-based; conditions: with imipenem 1 μg/ml; 95% inhibition of bacterial growth
Outline: as §3

[5] = tested on: Klebsiella pneumoniae expressing VIM-1 (IHMA599644); assay type: cell-based; conditions: with imipenem 1 μg/ml; 95% inhibition of bacterial growth
Outline: as §3

IMP-1 = IMP-1 (Serratia marcescens, UniProt P52699); test: biochemical; conditions: CCF2-FA fluorescence assay, 2 hours at 25° C.; read-out: IMP1 IC50
Outline: as §2

VIM-1 = VIM-1 (Pseudomonas aeruginosa (strain ATCC 15692 / DSM 22644 / CIP 104116 / JCM 14847 / LMG 12228 / 1C / PRS 101 / PAO1), UniProt A0A0F7KYQ8); test: biochemical; conditions: CCF2-FA fluorescence assay, 2 hours at 25° C.; read-out: VIM1 IC50
Outline: as §2

NDM-1, sequence (C7C422 whole entry, looked up, species assumed): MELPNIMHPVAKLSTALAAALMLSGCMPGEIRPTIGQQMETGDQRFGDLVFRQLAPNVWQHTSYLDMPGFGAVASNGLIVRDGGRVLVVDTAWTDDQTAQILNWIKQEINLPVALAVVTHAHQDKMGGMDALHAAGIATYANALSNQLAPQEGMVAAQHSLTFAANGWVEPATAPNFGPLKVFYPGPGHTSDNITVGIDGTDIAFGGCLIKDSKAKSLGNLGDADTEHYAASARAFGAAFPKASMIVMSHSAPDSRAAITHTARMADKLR
IMP-1, sequence (P52699 whole entry, looked up, species assumed): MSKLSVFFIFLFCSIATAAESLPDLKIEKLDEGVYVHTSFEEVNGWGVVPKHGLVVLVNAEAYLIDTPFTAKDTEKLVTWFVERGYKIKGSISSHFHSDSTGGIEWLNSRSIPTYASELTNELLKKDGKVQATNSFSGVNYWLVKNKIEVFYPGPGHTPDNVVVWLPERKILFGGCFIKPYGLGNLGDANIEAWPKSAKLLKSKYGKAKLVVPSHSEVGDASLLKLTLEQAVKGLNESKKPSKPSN

## NS(=O)(=O)c1c(S(=O)(=O)C2CNC2)ccc(N2CC3C(CO)C3C2)c1-c1nnn[nH]1 (stereo not drawn) [Example 62, 6-(azetidin-3-ylsulfonyl)-3-[6-(hydroxymethyl)-3-azabicyclo[3.1.0]hex-3-yl]-2-(1H-tetrazol-5-yl)benzenesulfonamide]
[1]
  MB9799 MITC95 P. aeruginosa uM Efflux Mutant: 1.56 µM
VIM-2
  IC50: 10.5 nM
NDM-1
  IC50: 2.86 nM
[2]
  MB9798 MITC95 P. aeruginosa uM Efflux WT: 50.00 µM
  Efflux ratio: 31.99
[3]
  CLB30016 E. coli MITC95 NDM: 1.56 µM
[4]
  CL5741 S. marcescens MITC95 IMP: 3.13 µM
[5]
  IHMA599644 K. pneumoniae MITC95 VIM: 6.25 µM
IMP-1
  IC50: 4.89 nM
VIM-1
  IC50: 3.07 nM

## NS(=O)(=O)c1c(S(=O)(=O)N[C@@H]2CCNC2)ccc(N2CCC(O)CC2)c1-c1nnn[nH]1 [Example 63, 4-(4-hydroxypiperidin-1-yl)-N1-[(3R)-pyrrolidin-3-yl]-3-(1H-tetrazol-5-yl)benzene-1,2-disulfonamide]
[1]
  MB9799 MITC95 P. aeruginosa uM Efflux Mutant: 1.56 µM
VIM-2
  IC50: 0.66 nM
NDM-1
  IC50: 0.31 nM
[2]
  MB9798 MITC95 P. aeruginosa uM Efflux WT: 1.56 µM
  Efflux ratio: 1.00
[3]
  CLB30016 E. coli MITC95 NDM: 3.13 µM
[4]
  CL5741 S. marcescens MITC95 IMP: 3.13 µM
[5]
  IHMA599644 K. pneumoniae MITC95 VIM: 6.25 µM
IMP-1
  IC50: 0.47 nM
VIM-1
  IC50: 0.16 nM

## NS(=O)(=O)c1c(S(=O)(=O)N[C@@H]2CCNC2)ccc(NCCN2CCOCC2)c1-c1nnn[nH]1 [Example 64, 4-[(2-morpholin-4-ylethyl)amino]-N1-[(3R)-pyrrolidin-3-yl]-3-(1H-tetrazol-5-yl)benzene-1,2-disulfonamide]
[1]
  MB9799 MITC95 P. aeruginosa uM Efflux Mutant: 1.56 µM
VIM-2
  IC50: 8.19 nM
NDM-1
  IC50: 5.51 nM
[2]
  MB9798 MITC95 P. aeruginosa uM Efflux WT: 25.00 µM
  Efflux ratio: 15.99
[3]
  CLB30016 E. coli MITC95 NDM: 1.56 µM
[4]
  CL5741 S. marcescens MITC95 IMP: 1.56 µM
[5]
  IHMA599644 K. pneumoniae MITC95 VIM: 6.25 µM
IMP-1
  IC50: 3.26 nM
VIM-1
  IC50: 1.62 nM

## CN1CCN(c2ccc(S(=O)(=O)N[C@@H]3CCNC3)c(S(N)(=O)=O)c2-c2nnn[nH]2)CC1=O [Example 65, 4-(4-methyl-3-oxopiperazin-1-yl)-N1-[(3R)-pyrrolidin-3-yl]-3-(1H-tetrazol-5-yl)benzene-1,2-disulfonamide]
[1]
  MB9799 MITC95 P. aeruginosa uM Efflux Mutant: 1.56 µM
VIM-2
  IC50: 1 nM
NDM-1
  IC50: 1.28 nM
[2]
  MB9798 MITC95 P. aeruginosa uM Efflux WT: 3.13 µM
  Efflux ratio: 2.00
[3]
  CLB30016 E. coli MITC95 NDM: 3.13 µM
[4]
  CL5741 S. marcescens MITC95 IMP: 3.13 µM
[5]
  IHMA599644 K. pneumoniae MITC95 VIM: 6.25 µM
IMP-1
  IC50: 2.26 nM
VIM-1
  IC50: 0.22 nM

## NS(=O)(=O)c1c(S(=O)(=O)N[C@@H]2CCNC2)ccc(NC2CCOCC2)c1-c1nnn[nH]1 [Example 66, N1-[(3R)-pyrrolidin-3-yl]-4-(tetrahydro-2H-pyran-4-ylamino)-3-(1H-tetrazol-5-yl)benzene-1,2-disulfonamide]
[1]
  MB9799 MITC95 P. aeruginosa uM Efflux Mutant: 1.56 µM
VIM-2
  IC50: 3.7 nM
NDM-1
  IC50: 0.62 nM
[2]
  MB9798 MITC95 P. aeruginosa uM Efflux WT: 25.00 µM
  Efflux ratio: 15.99
[3]
  CLB30016 E. coli MITC95 NDM: 6.25 µM
[4]
  CL5741 S. marcescens MITC95 IMP: 3.13 µM
[5]
  IHMA599644 K. pneumoniae MITC95 VIM: 6.25 µM
IMP-1
  IC50: 4.48 nM
VIM-1
  IC50: 1.76 nM

## CN(C)[C@H]1CCN(c2ccc(S(=O)(=O)N[C@@H]3CCNC3)c(S(N)(=O)=O)c2-c2nnn[nH]2)C1 [Example 67, 4-[(3S)-3-(dimethylamino)pyrrolidin-1-yl]-N1-[(3R)-pyrrolidin-3-yl]-3-(1H-tetrazol-5-yl)benzene-1,2-disulfonamide]
[1]
  MB9799 MITC95 P. aeruginosa uM Efflux Mutant: 1.56 µM
VIM-2
  IC50: 18.5 nM
NDM-1
  IC50: 85 nM
[2]
  MB9798 MITC95 P. aeruginosa uM Efflux WT: 12.50 µM
  Efflux ratio: 8.00
[3]
  CLB30016 E. coli MITC95 NDM: 1.56 µM
[4]
  CL5741 S. marcescens MITC95 IMP: 3.13 µM
[5]
  IHMA599644 K. pneumoniae MITC95 VIM: 1.56 µM
IMP-1
  IC50: 60.7 nM
VIM-1
  IC50: 4.32 nM

Source: patent US11207312B2, “Metallo-beta-lactamase inhibitors and methods of use thereof” (priority 2017, dated 2021)
